In US6921821B2, “Antagonists of melanin concentrating hormone receptor” (Abbott Laboratories, priority 2002, dated 2005):
Counter-ions that a name gives are not always drawn.

Each molecule was assayed against T1, murine MCHR (Mus musculus, UniProt Q8JZL2) (assay: Assay for release of intracellular calcium (FLIPR, Fluo-4), inhibition of MCH-induced Ca++ flux). Settings: test compound at a dose of 10 μM, HEK293 cells expressing the murine MCHR, read-out: inhibition of MCH (MCH induced Ca++ flux / fluorescence).
T1 construct: expressed in transfected cells; host or cells: HEK293
Type: cell-based
Procedure: Assay for Release of Intracellular Calcium
Activation of the melanin concentrating hormone receptor (MCHR) by MCH induces the release of Ca^++ from intracellular stores. This intracellular calcium release is measured using a fluorometric imaging plate reader (FLIPR™, Molecular Devices Corp.) in conjunction with the Ca^++-sensitive dye Fluo-4. Release of Ca^++ from intracellular stores causes an increase in fluorescence of the dye that is proportional to Ca^++ concentration. Briefly, the assays are performed as follows. HEK293 cells expressing the murine MCHR are plated overnight at 50,000 cells/well in 96-well plates. The following day, culture medium is removed and replaced with 100 μl/well of D-PBS (+glucose and sodium pyruvate) containing 2.5 μM Fluo-4AM (Molecular Probes), 0.01% Pluronic F-127 and 2.5 mM probenecid. Cells are loaded with the Fluo-4 dye for at least one hour at room temp. After loading, the cells are washed gently to remove extracellular dye and 100 μl of D-PBS (+glucose and sodium pyruvate) is added to each well. Test compounds are prepared at 40 μM in 4% DMSO. The cell plate is placed in the FLIPR™ and 50 μl/well of test compound is delivered. The calcium signal is followed for 3 minutes to assay for potential agonist activity by the test compounds. Then 50 μl/well of 12 nM mouse MCH (in D-PBS containing 0.1% BSA) is added and the ligand-induced calcium signal is followed for an additional 3 minutes. Antagonist activity as determined by the test compounds ability to inhibit MCH induced Ca^++ flux is calculated as % inhibition as described by the following formula: % inhibition=[1−((fTC−fB)÷(fMCH−fB))]×100, where fTC=MCH-induced fluorescence in the presence of test compound; fMCH=MCH-induced fluorescence in the absence of test compound; and fB=Baseline fluorescence.
MCH (3 nM) usually elicits a response of 30,000-40,000 relative fluorescence units (RFU) with a baseline of about 1000 RFU. Fluo-4 fluorescence is measured at 488 nm, with an exposure of 0.40 sec. and F-stop=2.0 and the laser set at 0.40-0.60 W constant light output.

T1 sequence (Q8JZL2 whole entry): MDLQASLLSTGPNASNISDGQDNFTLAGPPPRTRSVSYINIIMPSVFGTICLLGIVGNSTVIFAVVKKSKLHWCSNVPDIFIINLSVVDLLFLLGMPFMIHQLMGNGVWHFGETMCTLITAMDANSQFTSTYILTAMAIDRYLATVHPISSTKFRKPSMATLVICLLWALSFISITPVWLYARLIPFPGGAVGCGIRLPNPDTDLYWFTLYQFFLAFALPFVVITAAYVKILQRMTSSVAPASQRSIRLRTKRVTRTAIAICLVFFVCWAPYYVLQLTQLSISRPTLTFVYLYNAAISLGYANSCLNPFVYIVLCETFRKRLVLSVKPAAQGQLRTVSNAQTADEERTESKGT

Inhibition at 10 µM, ≥ 50%:
COc1ccc2oc(=O)cc(NC3CCN(Cc4ccc5c(c4)OCO5)CC3)c2c1 [II-1, 4-(1-Benzo[1,3]dioxol-5-ylmethyl-piperidin-4-ylamino)-6-methoxy-chromen-2-one]
CCc1ccc2oc(=O)cc(NC3CCN(Cc4ccc(C)c(C)c4)CC3)c2c1 [II-103, 4-{1-(3,4-Dimethyl-benzyl)-piperidin-4-ylamino}-6-ethyl-chromen-2-one]
Cc1ccc2oc(=O)cc(NC3CCN(C/C=C/c4ccccc4)CC3)c2c1 [III-6, 6-Methyl-4-[1-(3-phenyl-allyl)-piperidin-4-ylamino]-chromen-2-one]
COc1ccc2oc(=O)cc(NC3CCN(Cc4ccc5ncccc5c4)CC3)c2c1 [II-112, 6-Methoxy-4-(1-quinolin-6-ylmethyl-piperidin-4-ylamino)-chromen-2-one]
O=c1cc(NC2CCN(Cc3ccc4c(c3)OCO4)CC2)c2cc(C(F)(F)F)ccc2n1CC(F)(F)F [Compound V-58, 4-(1-Benzo[1,3]dioxol-5-ylmethyl-piperidin-4-ylamino)-1-(2,2,2-trifluoro-ethyl)-6-trifluoromethyl-1H-quinoline-2-one]
COc1ccc2oc(=O)cc(NC3CCN(Cc4ccc(O)c(F)c4)CC3)c2c1 [II-88, 4-[1-(3-Fluoro-4-hydroxy-benzyl)-piperidin-4-ylamino]-6-methoxy-chromen-2-one hydrochloride]
O=c1cc(NC2CCN(C/C=C/c3ccccc3)CC2)c2ccccc2n1Cc1ccccc1 [Compound V-44, 1-Benzyl-4-[1-(3-phenyl-allyl)-piperidin-4-ylamino]-1H-quinolin-2-one]
Cc1ccc(CN2CCC(Nc3cc(=O)oc4ccc(Cl)cc34)CC2)cc1C [II-71, 6-Chloro-4-[1-(3,4-dimethyl-benzyl)-piperidin-4-ylamino]-chromen-2-one]
Cc1ccc2oc(=O)c(F)c(NC3CCN(Cc4ccc5c(c4)OCO5)CC3)c2c1 [II-89, 4-(1-Benzo{1,3}dioxol-5-ylmethyl-piperidin-4-ylamino)-3-fluoro-6-methylchromene-2-one]
CC(c1ccc(O)c(F)c1)N1CCC(Nc2cc(=O)oc3ccc(Cl)cc23)CC1 (stereo not drawn) [II-113, 6-Chloro-4-{1-[1-(3-fluoro-4-hydroxy-phenyl)-ethyl]-piperidin-4-ylamino}-chromen-2-one]
COc1ccc2oc(=O)cc(NC3CCN(Cc4ccc5ocnc5c4)CC3)c2c1 [II-44, 4-(1-Benzooxazol-5-ylmethyl-piperidin-4-ylamino)-6-methoxy-chromen-2-one]
Cc1ccc2c(c1)c(NC1CCN(Cc3ccc4ccccc4c3)CC1)cc(=O)n2C [Compound V-22, 1,6-Dimethyl-4-(1-naphthalen-2-ylmethyl-piperidin-4-ylamino)-1H-quinolin-2-one]
O=C1CCCN1c1cc(Cl)cc2c(NC3CCN(Cc4ccc5c(c4)OCO5)CC3)cc(=O)oc12 [II-81]
Cc1cc(C)c2oc(=O)cc(NC3CCN(Cc4ccc5c(c4)OCO5)CC3)c2c1 [II-98, 4-(1-Benzo[1,3]dioxol-5-ylmethyl-piperidin-4-ylamino)-6,8-dimethyl-chromen-2-one]
COc1ccc(CN2CCC(Nc3c(C(=O)N(C)C)c(=O)n(C)c4ccc(Cl)cc34)CC2)cc1F [Compound V-54, 6-Chloro-4-[1-(3-fluoro-4-methoxy-benzyl)-piperidin-4-ylamino]-1-methyl-2-oxo-1,2-dihydro-quinoline-3-carboxylic acid dimethylamide]
O=c1cc(NC2CCN(Cc3ccc4occc4c3)CC2)c2cc(Cl)ccc2n1Cc1ccccn1 [Compound V-26, 4-(1-Benzofuran-5-ylimethyl-piperidin-4-ylamino)-6-chloro-1-pyridin-2-ylmethyl-1H-quinolin-2-one]
COc1ccc2oc(=O)cc(NC3CCN(Cc4ccc(Br)cc4)CC3)c2c1 [II-65, 4-[1-(4-Bromo-benzyl)-piperidin-4-ylamino]-6-methoxy-chromen-2-one trifluoroacetate]
COc1ccc2oc(=O)cc(NC3CCN(Cc4cc5ccccc5n4C)CC3)c2c1 [II-84, 6-Methoxy-4-[1-(1-methyl-1H-indol-2-ylmethyl)-piperidin-4-ylamino]-chromen-2-one, trifluoroacetate]
COc1ccc2oc(=O)cc(NC3CCN(Cc4ccc5c(ccn5C)c4)CC3)c2c1 [II-111, 6-Methoxy-4-[N-methylindole-5-ylmethyl-piperidin-4-ylamino]chromen-2-one]
O=c1cc(NC2CCN(Cc3ccc4ncccc4c3)CC2)c2cc(Cl)ccc2o1 [II-40, 6-Chloro-4-(1-quinolin-6-ylmethyl-piperidin-4-ylamino)-chromen-2-one]
O=c1cc(NC2CCN(Cc3ccncc3)CC2)c2cc(Cl)ccc2n1Cc1ccncc1 [Compound V-35, 6-Chloro-1-pyridin-4-ylmethyl-4-(1-pyridin-4-ylmethyl-piperidin-4-ylamino)-1H-quinolin-2-one]
COc1ccc2oc(=O)cc(NC3CCN(Cc4ccc(C(=O)NCCN5CCCC5)cc4)CC3)c2c1 [II-86, 4-[4-(6-Methoxy-2-oxo-2H-chromen-4-ylamino)-piperidin-1-ylmethyl]-N-(2-pyrrolidin-1-yl-ethyl)-benzamide; Double TFA Salt]
O=c1cc(NC2CCN(Cc3ccc4ccccc4c3)CC2)c2cc(Cl)ccc2o1 [II-2, 6—Chloro-4-(1-naphthalen-2-ylmethyl-piperidin-4-ylamino)-chromen-2-one]
N#Cc1c(NC2CCN(Cc3ccc4c(c3)OCO4)CC2)c2cc(Cl)ccc2[nH]c1=O [Compound V-27, 4-(1-Benzo[1,3]dioxol-5-ylmethyl-piperidin-4-ylamino)-6-chloro-2-oxo-1,2-dihydro-quinoline-3-carbonitrile]
Cn1c(=O)cc(NC2CCN(Cc3ccc4occc4c3)CC2)c2cc(C(F)(F)F)ccc21 [Compound V-33, 4-(1-Benzofuran-5-ylmethyl-piperidin-4-ylamino)-1-methyl-6-trifluoromethyl-1H-quinolin-2-one]
O=C(NCCN1CCCCC1)c1ccc(CN2CCC(Nc3cc(=O)oc4ccc(Cl)cc34)CC2)cc1 [II-67, 4-[4-(6-Chloro-2-oxo-2H-chromen-4-ylamino)-piperidin-1-ylmethyl]-N-(2-piperidin-1-yl-ethyl)-benzamide; Double TFA Salt]
O=c1cc(NC2CCN(Cc3ccc4c(c3)OCO4)CC2)c2cc(Cl)ccc2n1Cc1ccccn1 [Compound V-2, 4-(1-Benzo[1,3]dioxol-5-ylmethyl-piperidin-4-ylamino)-6-chloro-1-pyridin-2-ylmethyl-1H-quinolin-2-one]
